Active and inactive are the calls of the source. The rule behind the calls is not given here.
System: CCRIS mutagenicity, Ames/micronucleus/aberration tests
Experiment: CCRIS mutagenicity studies
[1] = Test System: AMES SALMONELLA TYPHIMURIUM, Strain/Indicator: TA100, Metabolic Activation: NONE, Method: STANDARD PLATE
[2] = Test System: AMES SALMONELLA TYPHIMURIUM, Strain/Indicator: TA104, Metabolic Activation: NONE, Method: STANDARD PLATE
[3] = Test System: AMES SALMONELLA TYPHIMURIUM, Strain/Indicator: TA98, Metabolic Activation: RAT, LIVER, S-9, AROCLOR 1254, Method: STANDARD PLATE
[4] = Test System: AMES SALMONELLA TYPHIMURIUM, Strain/Indicator: TA98, Metabolic Activation: NONE, Method: STANDARD PLATE
[5] = Test System: AMES SALMONELLA TYPHIMURIUM, Strain/Indicator: TA100, Metabolic Activation: RAT, LIVER, S-9, AROCLOR 1254, Method: STANDARD PLATE

In the case of CCc1nc(N)nc(N)c1-c1ccc(Cl)cc1, the mutagenic call (End Point: IN VITRO CHROMOSOMAL ABERRATIONS, Test System: HUMAN LYMPHOCYTES, Metabolic Activation: NONE) is reported as “active; positive”, the mutagenic call (End Point: IN VITRO MICRONUCLEUS, Test System: HAMSTER V79 CELLS, Metabolic Activation: NONE) is reported as “inactive; negative” and the mutagenic call (End Point: In vivo chromosomal aberrations, Species: Mouse, Strain/Sex: Swiss/Male, Route: Intraperitoneal) is reported as “active; positive (at highest dose only)”. The mutagenic call (End Point: In vivo chromosomal aberrations, Test System: Bone marrow cells, Species: Mouse, Strain/Sex: Swiss/Male, Route: Intraperitoneal) was “active; positive (chromatid breaks and acentric fragments)”, the mutagenic call (End Point: In vivo chromosomal aberrations, Test System: Spermatocytes, Species: Mouse, Strain/Sex: Swiss/Male, Route: Intraperitoneal) was “active; positive (at highest dose only)” and the mutagenic call (Test System: E.COLI, Strain/Indicator: WP2UVRA/PKM101, Metabolic Activation: NONE, Method: PREINCUBATION) was “inactive; negative”. For the same compound, the mutagenic call (Test System: E.COLI, Strain/Indicator: WP2UVRA/PKM101, Metabolic Activation: RAT LIVER S-9, PHENOBARBITAL AND 5,6-BENZOFLAVONE, Method: PREINCUBATION) was “inactive; negative”.
In the case of CCN(CC)Cc1cc(Nc2ccnc3cc(Cl)ccc23)ccc1O, the mutagenic call (Test System: AMES SALMONELLA TYPHIMURIUM, Strain/Indicator: TA97A, Metabolic Activation: NONE, Method: STANDARD PLATE) is reported as “inactive; negative”, the mutagenic call (Test System: AMES SALMONELLA TYPHIMURIUM, Strain/Indicator: TA97A, Metabolic Activation: RAT LIVER S-9, PHENOBARBITAL, Method: STANDARD PLATE) is reported as “inactive; negative” and the mutagenic call [1] is reported as “inactive; negative”. The mutagenic call (Test System: AMES SALMONELLA TYPHIMURIUM, Strain/Indicator: TA100, Metabolic Activation: RAT LIVER S-9, PHENOBARBITAL, Method: STANDARD PLATE) was “inactive; negative”, the mutagenic call (Test System: AMES SALMONELLA TYPHIMURIUM, Strain/Indicator: TA102, Metabolic Activation: NONE, Method: STANDARD PLATE) was “inactive; negative” and the mutagenic call (Test System: AMES SALMONELLA TYPHIMURIUM, Strain/Indicator: TA102, Metabolic Activation: RAT LIVER S-9, PHENOBARBITAL, Method: STANDARD PLATE) was “inactive; negative”. The mutagenic call [2] was “inactive; negative” and the mutagenic call (Test System: AMES SALMONELLA TYPHIMURIUM, Strain/Indicator: TA104, Metabolic Activation: RAT LIVER S-9, PHENOBARBITAL, Method: STANDARD PLATE) was “inactive; negative”.
With Cc1cnc2c(C)cc3c(nc(N)n3C)c2n1 the mutagenic call [3] was “active; positive”.
With CC(CO)[N+](=O)[O-] (stereo unspecified) the mutagenic call (Test System: AMES SALMONELLA TYPHIMURIUM, Strain/Indicator: TA98, Metabolic Activation: NONE, Method: PREINCUBATION) was “inactive; negative”, the mutagenic call (Test System: AMES SALMONELLA TYPHIMURIUM, Strain/Indicator: TA98, Metabolic Activation: RAT, LIVER, S-9, AROCLOR, Method: PREINCUBATION) was “inactive; negative” and the mutagenic call (Test System: AMES SALMONELLA TYPHIMURIUM, Strain/Indicator: TA100, Metabolic Activation: NONE, Method: PREINCUBATION) was “inactive; negative”. The mutagenic call (Test System: AMES SALMONELLA TYPHIMURIUM, Strain/Indicator: TA100, Metabolic Activation: RAT, LIVER, S-9, AROCLOR, Method: PREINCUBATION) was “inactive; negative”, the mutagenic call (Test System: AMES SALMONELLA TYPHIMURIUM, Strain/Indicator: TA102, Metabolic Activation: NONE, Method: PREINCUBATION) was “inactive; negative” and the mutagenic call (Test System: AMES SALMONELLA TYPHIMURIUM, Strain/Indicator: TA102, Metabolic Activation: RAT, LIVER, S-9, AROCLOR, Method: PREINCUBATION) was “inactive; negative”.
In the case of CN1CC[C@@]2(C)c3cc(O)ccc3N(C)[C@@H]12, the mutagenic call (Test System: AMES SALMONELLA TYPHIMURIUM, Strain/Indicator: TA97, Metabolic Activation: NONE, Method: STANDARD PLATE) is reported as “inactive; negative”, the mutagenic call (Test System: AMES SALMONELLA TYPHIMURIUM, Strain/Indicator: TA97, Metabolic Activation: S-9, Method: STANDARD PLATE) is reported as “inactive; negative” and the mutagenic call [4] is reported as “inactive; negative”. The mutagenic call (Test System: AMES SALMONELLA TYPHIMURIUM, Strain/Indicator: TA98, Metabolic Activation: S-9, Method: STANDARD PLATE) was “inactive; negative”, the mutagenic call [1] was “inactive; negative” and the mutagenic call (Test System: AMES SALMONELLA TYPHIMURIUM, Strain/Indicator: TA100, Metabolic Activation: S-9, Method: STANDARD PLATE) was “inactive; negative”. The mutagenic call [2] was “inactive; negative”, the mutagenic call (Test System: AMES SALMONELLA TYPHIMURIUM, Strain/Indicator: TA104, Metabolic Activation: S-9, Method: STANDARD PLATE) was “inactive; negative” and the mutagenic call (Test System: AMES SALMONELLA TYPHIMURIUM, Strain/Indicator: TA1535, Metabolic Activation: NONE, Method: STANDARD PLATE) was “inactive; negative”. The mutagenic call (Test System: AMES SALMONELLA TYPHIMURIUM, Strain/Indicator: TA1535, Metabolic Activation: S-9, Method: STANDARD PLATE) was “inactive; negative”, the mutagenic call (Test System: AMES SALMONELLA TYPHIMURIUM, Strain/Indicator: TA1537, Metabolic Activation: NONE, Method: STANDARD PLATE) was “inactive; negative” and the mutagenic call (Test System: AMES SALMONELLA TYPHIMURIUM, Strain/Indicator: TA1537, Metabolic Activation: S-9, Method: STANDARD PLATE) was “inactive; negative”. The mutagenic call (Test System: AMES SALMONELLA TYPHIMURIUM, Strain/Indicator: TA1538, Metabolic Activation: S-9, Method: STANDARD PLATE) was “inactive; negative”.
For C[C@@H]1C[C@@H]2c3cccc4[nH]cc(c34)C[C@H]2N(C)C1, the mutagenic call [5] was “active; positive”.
For CC(=O)N(O)c1ccc(Cl)cc1, the mutagenic call [4] was “inactive; negative”, the mutagenic call [3] was “inactive; negative” and the mutagenic call [1] was “inactive; negative”. The mutagenic call [5] was “inactive; negative”.
For COc1cc2nc3cc(N)ccc3nc2cc1N, the mutagenic call (Test System: AMES SALMONELLA TYPHIMURIUM, Strain/Indicator: TA98, Metabolic Activation: S-9, Method: SUSPENSION/PLATE) was “active; positive”.

Source: PubChem BioAssay AID1259407 (Chemical Carcinogenesis Research Information System (CCRIS), 2018)
